The numbers were not newly measured in patent US20080153738A1, “COMPOSITIONS AND METHODS FOR TREATMENT OF HYPERPLASIA” (priority 1997, published 2008), which cites them from elsewhere.

Each structure is given as a SMILES string.

The test system of the series is in-stent restenosis in porcine coronary arteries.

Take `CC(=O)O[C@H]1C(=O)[C@@]2(C)[C@H]([C@H](OC(=O)c3ccccc3)[C@]3(O)C[C@H](OC(=O)[C@H](O)[C@@H](NC(=O)c4ccccc4)c4ccccc4)C(C)=C1C3(C)C)[C@]1(OC(C)=O)CO[C@@H]1C[C@@H]2O` [paclitaxel, Paclitaxel]: the neointimal area entry (90 μg paclitaxel stents) is on record as “significant reduction in neointimal area”. For the same compound, the Lumen area entry (15 and 90 μg paclitaxel stents, directly applied without polymer) is “Lumen area was increased”. In addition, for the setting “stents coated with 90 μg of paclitaxel”, the local cytotoxic effects entry is “significant local cytotoxic effects were observed”. Moreover, under “stents coated with biodegradable polymer, slow-release paclitaxel 175-200 μg/stent, 4 weeks”, the “diameter stenosis and neointimal area” value was “reduction in diameter stenosis and neointimal area”.
